Results taken from ChEMBL document CHEMBL3593167, “Synthesis and anti-Trypanosoma cruzi activity of new 3-phenylthio-nor-β-lapachone derivatives” (Bioorg Med Chem, 2015).

How the values were obtained:
Trypanosoma cruzi = assay: Trypanocidal activity against Trypanosoma cruzi Y bloodstream trypomastigotes in presence of 10% mouse blood assessed as induction of parasite lysis incubated for 24 hrs by Neubauer chamber based cell counting method; type: functional, organism-based
[1] = Toxicity against mouse HMC incubated for 24 hrs; conditions: HMC cells, read-out: LC50
[2] = Selectivity index, ratio of LC50 for mouse HMC to IC50 for Trypanosoma cruzi Y bloodstream trypomastigotes

Cc1ccc(SC2C3=C(OC2(C)C)c2ccccc2C(=O)C3=O)cc1 (stereo not given)
IC50 (Trypanosoma cruzi): 59.5 µM | CC50 at 24 h [1]: 20.5 µM | Ratio LC50/IC50 [2]: 0.34

CC1(C)OC2=C(C(=O)C(=O)c3ccccc32)C1Sc1ccccc1 (stereo not given)
IC50 (Trypanosoma cruzi): 32.3 µM | CC50 at 24 h [1]: 17.5 µM | Ratio LC50/IC50 [2]: 0.54

CC1(C)OC2=C(C(=O)C(=O)c3ccccc32)C1Sc1c(F)c(F)c(F)c(F)c1F (stereo not given)
IC50 (Trypanosoma cruzi): 183 µM

COc1ccc(SC2C3=C(OC2(C)C)c2ccccc2C(=O)C3=O)cc1 (stereo not given)
IC50 (Trypanosoma cruzi): 158 µM

Cc1cccc(SC2C3=C(OC2(C)C)c2ccccc2C(=O)C3=O)c1 (stereo not given)
IC50 (Trypanosoma cruzi): 83.6 µM | CC50 at 24 h [1]: 25.8 µM | Ratio LC50/IC50 [2]: 0.31

CC1(C)OC2=C(C(=O)C(=O)c3ccccc32)C1Sc1ccc(F)cc1 (stereo not given)
IC50 (Trypanosoma cruzi): 165 µM

CC1(C)OC2=C(C(=O)C(=O)c3ccccc32)C1Sc1ccc(Cl)cc1 (stereo not given)
IC50 (Trypanosoma cruzi): 9.2 µM | CC50 at 24 h [1]: 38.9 µM | Ratio LC50/IC50 [2]: 4.23
